Measured values taken from patent publication US6656942B2, “Orally active salts with tyrosine kinase activity” (Merck & Co., Inc., priority 2000, dated 2003).
Counter-ions that a name gives are not always drawn.

Assay: Solubility of HCl salt 1-11D suspended in solvents for 7 days at room temperature
Format: physicochemical
Conditions: RT for 7 days
Experimental: HCl salt 1-11D is also crystalline as witnessed by the X-ray powder diffraction pattern of the material, having multiple diffraction peaks between 5° and 30° 2-theta. […] (rate of 10° C./min). The compound is birefringent under plane polarized light. It is needle-shaped particles of approximately 5-25 micron. The solubility of salt 1-11D was measured in water and various organic solvents. Table VI below summarizes the solubility of the 1-11D suspended in various solvents for 7 days at room temperature.

## CS(=O)(=O)N1CCN(Cc2ccc3[nH]c(-c4cc5ccccc5[nH]c4=O)cc3c2)CC1 [Salt 1-11D]
Aqueous ETOH
  solubility: 4340 µg/mL
Aqueous IPA
  solubility: 3990 µg/mL
Ethanol
  solubility: 130 µg/mL
Isopropanol
  solubility: 57 µg/mL
Water
  solubility: 620 µg/mL
